What was measured:
Assay in all cases: relative viability (nuclei count vs DMSO), 5 days (fraction); higher = more cells survive
IDH-C35 + Olaparib = compound: Cc1ccccc1C(C(=O)NC1CCCCC1)N(C(=O)Cn1ccnc1C)c1cccc(F)c1 [IDH-C35] + O=C(c1cc(Cc2n[nH]c(=O)c3ccccc23)ccc1F)N1CCN(C(=O)C2CC2)CC1 [Olaparib] (partner 8 µM)
Procedure, shortened: (§1)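 Nuclei were stained with Hoechst during a one-step fixation (final 0.05% Triton X-100, 1% formaldehyde, 1 ug/ml Hoechst) carried out 5 days after dosing, then counted on 4× images. The cells, lung cancer lines in 1536-well plates, had been dosed by pin tool the day after seeding with one drug alone or a fixed anchor-drug dose plus five library-drug doses (not always all listed) in √10 steps. Relative viability is the nuclei count in treated wells divided by that in vehicle wells, and each value is the median of duplicate plates.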

IDH-C35 + Crizotinib = compound: Cc1ccccc1C(C(=O)NC1CCCCC1)N(C(=O)Cn1ccnc1C)c1cccc(F)c1 [IDH-C35] + C[C@@H](Oc1cc(-c2cnn(C3CCNCC3)c2)cnc1N)c1c(Cl)ccc(F)c1Cl [Crizotinib] (partner 1 µM)
Procedure, shortened: as §1

[1] = compound: CC1=C(C(=NN1)C)CC2=C(C3=C(S2)N(C(=O)N(C3=O)C)CC(C)C)C(=O)N4C[C@@H](CO4)O + Cc1nc(Nc2ncc(C(=O)Nc3c(C)cccc3Cl)s2)cc(N2CCN(CCO)CC2)n1 [Dasatinib] (partner 0.075 µM)
Procedure, shortened: as §1

[2] = compound: CC1=C(C(=NN1)C)CC2=C(C3=C(S2)N(C(=O)N(C3=O)C)CC(C)C)C(=O)N4C[C@@H](CO4)O + CS(=O)(=O)CCNCc1ccc(-c2ccc3ncnc(Nc4ccc(OCc5cccc(F)c5)c(Cl)c4)c3c2)o1 [Lapatinib] (partner 2 µM)
Procedure, shortened: as §1

Cell Line | relative viability (IDH-C35 + Olaparib; first compound 0.08 µM) | relative viability (IDH-C35 + Olaparib; first compound 0.253 µM) | relative viability (IDH-C35 + Olaparib; first compound 0.8 µM) | relative viability (IDH-C35 + Olaparib; first compound 2.53 µM) | relative viability (IDH-C35 + Olaparib; first compound 8 µM) | relative viability (IDH-C35 + Crizotinib; first compound 0.08 µM) | relative viability (IDH-C35 + Crizotinib; first compound 0.253 µM) | relative viability (IDH-C35 + Crizotinib; first compound 0.8 µM) | relative viability (IDH-C35 + Crizotinib; first compound 2.53 µM) | relative viability (IDH-C35 + Crizotinib; first compound 8 µM) | relative viability ([1]; first compound 0.0025 µM) | relative viability ([1]; first compound 0.007906 µM) | relative viability ([1]; first compound 0.025 µM) | relative viability ([1]; first compound 0.07906 µM) | relative viability ([1]; first compound 0.25 µM) | relative viability ([2]; first compound 0.0025 µM) | relative viability ([2]; first compound 0.007906 µM) | relative viability ([2]; first compound 0.025 µM) | relative viability ([2]; first compound 0.07906 µM) | relative viability ([2]; first compound 0.25 µM)
NCI-H1651 | 0.173 | 0.179 | 0.181 | 0.166 | 0.188 | 0.848 | 0.874 | 0.874 | 0.919 | 0.925 | 0.445 | 0.372 | 0.352 | 0.348 | 0.345 | 0.922 | 0.971 | 0.771 | 0.766 | 0.833
NCI-H1666 | 0.777 | 0.795 | 0.721 | 0.781 | 0.718 | 0.995 | 0.942 | 0.968 | 1 | 0.967 | 0.796 | 0.88 | 0.776 | 0.798 | 0.923 | 0.72 | 0.584 | 0.734 | 0.786 | 0.669
NCI-H1734 | 0.585 | 0.628 | 0.61 | 0.634 | 0.588 | 0.69 | 0.729 | 0.623 | 0.638 | 0.729 | 0.504 | 0.543 | 0.453 | 0.484 | 0.473 | 1.19 | 1.11 | 1.02 | 0.986 | 0.812
NCI-H1755 | 0.923 | 0.806 | 0.884 | 0.847 | 0.866 | 0.911 | 0.915 | 0.872 | 0.865 | 0.827 | 0.497 | 0.343 | 0.456 | 0.359 | 0.417 | 1.04 | 0.919 | 1.02 | 1.04 | 1.07
NCI-H1792 | 0.508 | 0.444 | 0.417 | 0.474 | 0.362 | 0.972 | 0.949 | 0.94 | 1.01 | 0.971 | 0.836 | 0.947 | 0.813 | 0.569 | 0.687 | 0.963 | 0.931 | 0.834 | 0.746 | 0.824
NCI-H1915 | 0.267 | 0.269 | 0.245 | 0.274 | 0.256 | 0.855 | 0.865 | 0.805 | 0.904 | 0.917 | 0.284 | 0.374 | 0.338 | 0.3 | 0.291 | 0.98 | 1.02 | 0.953 | 0.967 | 1.06
NCI-H1944 | 0.402 | 0.429 | 0.451 | 0.391 | 0.407 | 1.12 | 1.18 | 0.979 | 1.04 | 1.22 | 0.238 | 0.253 | 0.235 | 0.234 | 0.221 | 0.877 | 0.94 | 0.951 | 0.822 | 0.92
NCI-H1975 | 0.809 | 0.805 | 0.815 | 0.8 | 0.735 | 1 | 0.967 | 0.93 | 0.924 | 0.876 | 0.41 | 0.36 | 0.394 | 0.343 | 0.39 | 0.792 | 0.942 | 0.916 | 0.995 | 1.08
